Row | melting point [°C] | Compound
1 | 152 to 153 | O=C(O)CCCCCCCOc1ccc(Cl)cc1NC(=O)c1ccccc1O [Compound 1, 8-[(N-Salicyloyl-2-amino-4-chloro)phenoxyl]octanoic acid]
2 | 166 to 169 | O=C(O)CCCCOc1ccc(Cl)cc1NC(=O)c1ccccc1O [Compound 2]
3 | 231 to 234 | O=C(O)CCCOc1ccc(Cl)cc1NC(=O)c1ccccc1O [Compound 3]

Second part, the molecule before the results:

Row | Compound | melting point [°C]
4 | O=C(O)CCCCCCCOc1ccccc1NC(=O)c1ccccc1O [Compound 4] | 122 to 124
5 | O=C(O)CCCCOc1ccccc1NC(=O)c1ccccc1O [Compound 5] | 147 to 149
6 | COc1cccc(C(=O)Nc2ccc(OCCC(=O)O)cc2)c1OC [Compound 7] | 135 to 137
7 | O=C(O)CCOc1ccc(NC(=O)c2ccccc2O)cc1 [Compound 8, 3-(4-salicyloylamino)phenoxy propionic acid] | 165 to 167
8 | COc1ccccc1C(=O)Nc1ccc(OCCC(=O)O)cc1 [Compound 9] | 154 to 158
9 | O=C(O)COc1ccc(CCCNC(=O)c2ccccc2O)cc1 [Compound 10] | 124 to 126.5

Source: patent US7151191B2, “Compounds and compositions for delivering active agents” (Emisphere Technologies, Inc., priority 2000, dated 2006)
